According to patent US4370338A (priority 1980, dated 1983):
Where two headings read alike, the source gives them in different places.

Assays:
[1] = tested on: convulsions caused by supramaximal electric shock (ESM); assay: Supramaximal electric shock (ESM) convulsions in the mouse, oral; format: in vivo, mouse (male CD1, Charles River); details: 1.5 h, read-out: ED50 E.S.M. (mouse orally)
Procedure: These effects have been shown in vivo on the mouse and the rat. In the case of the mouse, the product is administered orally, in increasing doses, to batches of 10 male mice CD1 (Charles River) of 20-27 g, 90 minutes before exposure to a supramaximal electric shock (ESM), according to the method described by G. M. Everett and R. K. Richards (J. Pharmacol, Exptl. Therap. 81, 402, 1944).
(§1) The results obtained are collected in the following Table 1, wherein there are also given, for comparison, the results provided by two reference anticonvulsants (valproic acid, phenobarbital).

[2] = tested on: convulsions caused by isoniazide (INH); assay: animal or person; format: in vivo, rat (male CD, Charles River); details: for ED50: 25 min, rat, ip, 25 minutes after 500 mg/kg sc isoniazide, dose protecting 50% of animals, read-out: ED50 I.N.H. (rat ip)
Procedure: (§2) In the case of the male rat CD (Charles River) of 200-230 g, the convulsions are caused by the subcutaneous injection either of 500 mg/kg of isoniazide (INH) or of 1.5 mg/kg of a strychnine in the form of the sulfate. According to the protocol described by J. L. Costa et al. (Adv. Biochem., Pharmacol., 14, 113, 1975), the product to be tested is administered intraperitoneally 25 minutes after the isoniazide and 5 minutes before the strychnine. The number of animals having shown convulsions is registered during an observation period of 60 minutes after the injection of the isoniazide and 25 minutes after the injection of the strychnine.

[3] = tested on: convulsions caused by strychnine; assay: Strychnine convulsions in the rat, intraperitoneal; format: in vivo, rat (male CD, Charles River); details: for ED50: Rattus norvegicus, ip, read-out: ED50 Strychnine (rat ip)
Procedure: as §2, §1

male mouse CD1 = assay: Test of the 4 plates (anxiolytic activity); format: in vivo, Charles River); details: 90 minutes before test, vs control group
Procedure: The anxiolytic activity of the product has been shown on the mouse, by use of the method called the test of the 4 plates, described by J. R. Boissier et al. (Europ. J. Pharmacol., 4, 145, 1968).
90 minutes after oral administration of the product, the animal undergoing the test (male mouse CD1 Charles River of 20-27 g) is placed in a box the base or floor of which is formed of four separated metal plates. Each time the animal passes from one plate to another, all the plates are electrified. The animal rapidly associates displacement and an electric shock and stays immovable on one of the plates. The number of crossings effected by the mouse in 2 minutes is thus determined.
The animals are divided into groups of 20 mice, the control group receiving only the vehicle. The results obtained for the treated groups are expressed by a percentage increase of the number of passages with respect to the control group and are collected in Table 2 below.

CCCC(CCC)C(=O)O [Valproic acid]
ED50 ([1]; Mus musculus, po): 450 mg/kg
ED50 [2]: 180 mg/kg
ED50 Strychnine (rat ip), result in words ([3]; rat, inactive at 600 (mg/kg)): inactive

Nc1nc2ccc(OC(F)(F)F)cc2s1 [2-Amino-6-trifluoromethoxy-benzothiazole]
ED50 ([1]; mouse, oral, 90 minutes before supramaximal electric shock, dose protecting 50% of animals): 10 mg/kg
ED50 [2]: 2.2 mg/kg
doses inhibiting INH convulsions, times less than those necessary to inhibit strychnine convulsions ([2]; INH versus strychnine convulsions): 4 times
ED50 [3]: 8.4 mg/kg
% increase of the number of passages (male mouse CD1; 5 mg/kg orally): 50%
% increase of the number of passages (male mouse CD1; 10 mg/kg orally): 61%
% increase of the number of passages (male mouse CD1; 20 mg/kg orally): 100%
% increase of the number of passages (male mouse CD1; 25 mg/kg orally (first line printed 25)): 162%
% increase of the number of passages (male mouse CD1; 25 mg/kg orally (second line printed 25)): 215%

CCC1(c2ccccc2)C(=O)NC(=O)NC1=O [Phenobarbital]
ED50 ([1]; Mus musculus, po): 26 mg/kg
ED50 [2]: 16 mg/kg
ED50 [3]: 33 mg/kg
